Experimental data taken from PubChem BioAssay (NCI).
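Where inhibition never reached the appropriate level, the endpoint shown equals the highest concentration tested. Otherwise, values were interpolated linearly from a five-concentration, 48-hour dose response in 96-well plates. The concentration for 50% growth inhibition is given as GI50. TGI: total growth inhibition.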

Experiments:
Experiment in all cases: inhibition of tumour cell growth, NCI panel, 48 h
[1] = system: ACHN renal
[2] = system: HCC-2998 colon
[3] = system: MALME-3M melanoma
[4] = system: MDA-MB-435
[5] = system: MOLT-4 leukemia
[6] = system: SF-539 CNS
[7] = system: SK-MEL-28 melanoma
[8] = system: SK-OV-3 ovarian
[9] = system: SNB-75 CNS
[10] = system: T-47D breast

## C[C@H]1O[C@@H](O[C@H]2[C@@H](O)C[C@H](O[C@H]3[C@@H](O)C[C@H](O[C@H]4CC[C@]5(C)C6C[C@@H](O)[C@]7(C)[C@@H](C8=CC(=O)OC8)CC[C@]7(O)C6CC[C@@H]5C4)O[C@@H]3C)O[C@@H]2C)C[C@H](O)[C@@H]1O (stereo not given in full)
[1]
  GI50: 0.022 µM
  TGI: 0.115 µM
[2]
  GI50: 0.147 µM
  TGI: 0.486 µM
[3]
  GI50: 0.115 µM
  TGI: 0.262 µM
[4]
  GI50: 0.135 µM
  TGI: 0.418 µM
[5]
  GI50: 0.0176 µM
  TGI: 0.147 µM
[6]
  GI50: 0.0648 µM
  TGI: 0.139 µM
[7]
  GI50: 0.104 µM
  TGI: 0.222 µM
[8]
  GI50: 0.0821 µM
  TGI: 0.164 µM
[9]
  GI50: 0.08 µM
  TGI: 0.221 µM
[10]
  GI50: 0.0833 µM
  TGI: 0.252 µM

## N#Cc1cc(-c2ccccc2)[nH]c1-c1nccc2ccccc12
[1]
  GI50: 18.5 µM
  TGI: > 100 µM
[2]
  GI50: 18.9 µM
  TGI: > 100 µM
[3]
  GI50: 13 µM
  TGI: 84.5 µM
[4]
  GI50: 10.5 µM
  TGI: 78.1 µM
[5]
  GI50: 7.15 µM
  TGI: 52.2 µM
[6]
  GI50: 32.7 µM
  TGI: > 100 µM
[7]
  GI50: 26.5 µM
  TGI: > 100 µM
[8]
  GI50: 17.8 µM
  TGI: > 100 µM
[9]
  GI50: 13.7 µM
  TGI: > 100 µM
[10]
  GI50: 3.06 µM
  TGI: 45.2 µM

## CC(C)[C@@H]1NC(=O)[C@]2(C)CSC(=N2)c2csc(n2)CNC(=O)C[C@@H](/C=C/CCS)OC1=O
[1]
  GI50: 1.75 µM
  TGI: 9.12 µM
[2]
  GI50: 0.089 µM
  TGI: 0.442 µM
[3]
  GI50: 0.0295 µM
  TGI: > 100 µM
[4]
  GI50: 0.0612 µM
  TGI: 4.17 µM
[5]
  GI50: 0.171 µM
  TGI: > 100 µM
[6]
  GI50: 0.0543 µM
  TGI: > 100 µM
[7]
  GI50: 0.0564 µM
  TGI: 7.01 µM
[8]
  GI50: 0.0204 µM
  TGI: 0.228 µM
[9]
  GI50: 0.0686 µM
  TGI: > 100 µM
[10]
  GI50: 0.491 µM
  TGI: 7.5 µM

## Nc1nn(C(=O)Nc2ccc(Cc3ccccc3)cc2)c2ccc(Cl)cc12
[1]
  GI50: 0.0646 µM
  TGI: 26.4 µM
[2]
  GI50: 0.211 µM
  TGI: 1.48 µM
[3]
  GI50: 12 µM
  TGI: > 74 µM
[4]
  GI50: 0.138 µM
  TGI: > 100 µM
[5]
  GI50: 4.87 µM
  TGI: 47 µM
[6]
  GI50: 1.29 µM
  TGI: 7.66 µM
[7]
  GI50: 7.91 µM
  TGI: > 100 µM
[8]
  GI50: 17.9 µM
  TGI: 52 µM
[9]
  GI50: 15 µM
  TGI: 35.2 µM
[10]
  GI50: 0.0957 µM
  TGI: 28.8 µM

## COc1ccc(Nc2nc(NCc3ccccc3)c3ccccc3n2)cc1
[1]
  GI50: 3.38 µM
  TGI: 14.1 µM
[2]
  GI50: 2.9 µM
  TGI: 7.6 µM
[3]
  GI50: 1.92 µM
  TGI: 3.69 µM
[4]
  GI50: 1.92 µM
  TGI: 3.85 µM
[5]
  GI50: 2.12 µM
  TGI: 5.28 µM
[6]
  GI50: 9.52 µM
  TGI: 23.9 µM
[7]
  GI50: 2.03 µM
  TGI: 4.1 µM
[8]
  GI50: 10.4 µM
  TGI: 22.1 µM
[9]
  GI50: 7.98 µM
  TGI: 22.4 µM
[10]
  GI50: 1.74 µM
  TGI: 3.4 µM

## Nc1ccccc1C#Cc1ccccc1C#Cc1ccccc1N
[1]
  GI50: 14 µM
  TGI: 29.7 µM
[2]
  GI50: 14 µM
  TGI: 41 µM
[3]
  GI50: 10.3 µM
  TGI: 24.1 µM
[4]
  GI50: 1.31 µM
  TGI: 4.39 µM
[5]
  GI50: 2.12 µM
  TGI: 11.9 µM
[6]
  GI50: 5.4 µM
  TGI: 21.1 µM
[7]
  GI50: 15.1 µM
  TGI: 87.8 µM
[8]
  GI50: 15.1 µM
  TGI: 35.5 µM
[9]
  GI50: 23.7 µM
  TGI: 70.3 µM
[10]
  GI50: 17.1 µM
  TGI: 38.4 µM
